According to PubChem BioAssay AID1963856 (Molecular Pharmacology Branch, DTP, NCI, 2024):

System: LG0567-F671-PDC KRAS tumor spheroid viability
Assay: Anticancer human tumor LG0567-F671-PDC patient-derived lung adenocarcinoma cell line growth inhibition [KRAS2]
Details: spheroids with HUVEC and MSC; for viability, T/C: stronger effect = lower value
Method in brief: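 Combination screen of spheroid viability in tumor-cell co-cultures with endothelial (HUVEC) and mesenchymal stem cell stroma. Each agent was tested in half-log dilutions, topping at clinical Cmax or at 10 microM without a known Cmax.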

[1] = curve of first compound, second compound 0.1 µM
[2] = curve of first compound, second compound 0.316 µM
[3] = curve of first compound, second compound 1 µM
[4] = curve of first compound, second compound 3.16 µM
[5] = curve of first compound, second compound 10 µM
[6] = second compound 0.1 µM, first compound 0.0316 µM
[7] = second compound 0.1 µM, first compound 0.1 µM
[8] = second compound 0.1 µM, first compound 0.316 µM
[9] = second compound 0.1 µM, first compound 1 µM
[10] = second compound 0.1 µM, first compound 3.16 µM
[11] = second compound 0.1 µM, first compound 10 µM
[12] = second compound 0.316 µM, first compound 0.0316 µM
[13] = second compound 0.316 µM, first compound 0.1 µM
[14] = second compound 0.316 µM, first compound 0.316 µM
[15] = second compound 0.316 µM, first compound 1 µM
[16] = second compound 0.316 µM, first compound 3.16 µM
[17] = second compound 0.316 µM, first compound 10 µM
[18] = second compound 1 µM, first compound 0.0316 µM
[19] = second compound 1 µM, first compound 0.1 µM
[20] = second compound 1 µM, first compound 0.316 µM
[21] = second compound 1 µM, first compound 1 µM
[22] = second compound 1 µM, first compound 3.16 µM
[23] = second compound 1 µM, first compound 10 µM
[24] = second compound 3.16 µM, first compound 0.0316 µM
[25] = second compound 3.16 µM, first compound 0.1 µM
[26] = second compound 3.16 µM, first compound 0.316 µM
[27] = second compound 3.16 µM, first compound 1 µM
[28] = second compound 3.16 µM, first compound 3.16 µM
[29] = second compound 3.16 µM, first compound 10 µM
[30] = second compound 10 µM, first compound 0.0316 µM
[31] = second compound 10 µM, first compound 0.1 µM
[32] = second compound 10 µM, first compound 0.316 µM
[33] = second compound 10 µM, first compound 1 µM
[34] = second compound 10 µM, first compound 3.16 µM
[35] = second compound 10 µM, first compound 10 µM
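Further: drug exposure lasted seven days after spheroids formed for three days.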
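Wherever viability, T/C is given: 100% = DMSO vehicle control viability.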

Row | Structure (SMILES) | IC50 [1] [nM] | IC50 [2] [nM] | IC50 [3] [nM] | IC50 [4] [nM] | IC50 [5] [nM] | viability, T/C [6] [%] | viability, T/C [7] [%] | viability, T/C [8] [%] | viability, T/C [9] [%] | viability, T/C [10] [%] | viability, T/C [11] [%] | viability, T/C [12] [%] | viability, T/C [13] [%] | viability, T/C [14] [%] | viability, T/C [15] [%] | viability, T/C [16] [%] | viability, T/C [17] [%] | viability, T/C [18] [%] | viability, T/C [19] [%] | viability, T/C [20] [%] | other results
1 | COC(=O)c1ccc2c(C(=Nc3ccc(N(C)C(=O)CN4CCN(C)CC4)cc3)c3ccccc3)c(O)[nH]c2c1 + CC1OCC2(CCN(c3cnc(Sc4ccnc(N)c4Cl)c(N)n3)CC2)C1N | > 10000 | < 31.6 | < 31.6 | < 31.6 | < 31.6 | 55.5 | 50.5 | 47.3 | 57.5 | 57.8 | 51.8 | 29.1 | 29.2 | 26.4 | 39.5 | 36.3 | 37.3 | 25.5 | 23.4 | 23.6 | viability, T/C [21]: 30.6%; viability, T/C [22]: 38.2%; viability, T/C [23]: 34%; viability, T/C [24]: 19.5%; viability, T/C [25]: 20.1%; viability, T/C [26]: 19%; viability, T/C [27]: 24.1%; viability, T/C [28]: 32.5%; viability, T/C [29]: 27.8%; viability, T/C [30]: 13.7%; viability, T/C [31]: 13.9%; viability, T/C [32]: 13.2%; viability, T/C [33]: 19.5%; viability, T/C [34]: 23.6%; viability, T/C [35]: 26.7%
2 | Cn1nccc1Nc1nccc(-c2cc3c(s2)C(C)(C)N(CCN2CCOCC2)C3=O)n1 + CC1OCC2(CCN(c3cnc(Sc4ccnc(N)c4Cl)c(N)n3)CC2)C1N | 180 | < 31.6 | < 31.6 | < 31.6 | < 31.6 | 60.6 | 52 | 46.3 | 38.9 | 24.1 | 23.4 | 36.8 | 35.9 | 29.7 | 24.3 | 21.5 | 18.2 | 32.6 | 29.5 | 21 | viability, T/C [21]: 18.3%; viability, T/C [22]: 16.4%; viability, T/C [23]: 12.4%; viability, T/C [24]: 18.6%; viability, T/C [25]: 19.6%; viability, T/C [26]: 17.9%; viability, T/C [27]: 9.57%; viability, T/C [28]: 7.17%; viability, T/C [29]: 10.8%; viability, T/C [30]: 10.2%; viability, T/C [31]: 10.7%; viability, T/C [32]: 10.5%; viability, T/C [33]: 4.14%; viability, T/C [34]: 3.55%; viability, T/C [35]: 5.13%
3 | Cn1nccc1Nc1nccc(-c2cc3c(s2)C(C)(C)N(CCN2CCOCC2)C3=O)n1 | – | – | – | – | – | – | – | – | – | – | – | – | – | – | – | – | – | – | – | – | viability, T/C (compound 0.0316 µM): 95.8% [middle of 5 runs]; viability, T/C (compound 0.1 µM): 89.5% [middle of 5 runs]; viability, T/C (compound 0.316 µM): 74.6% [middle of 5 runs]; viability, T/C (compound 1 µM): 53.3% [middle of 5 runs]; viability, T/C (compound 3.16 µM): 37.5% [middle of 4 runs]; viability, T/C (compound 10 µM): 30.1% [middle of 5 runs]; IC50 (curve of compound): 1.25 µM [middle of 5 runs]
